Results: the NIST ThermoML archive (doi:10.1016/j.jct.2015.11.016)
Numbers after ± are expanded uncertainties.

Key:
[1] = 298.15 K; 101.33 kPa; Liquid; Vibrating tube method
[2] = xn = mol fraction of the nth substance listed; details: 298.15 K, 100 kPa, Liquid, Vibrating tube method

Structure (SMILES) | mass density [1] [kg/m3] | other results
CCCC[N+]1(C)CCCC1.N#CN=C=[N-] [1-butyl-1-methylpyrrolidinium dicyanamide] + c1ccccc1 | – | mass density ([2]; x2 = 0.706): 964.75 ± 6.2 kg/m3
c1ccccc1 [benzene] | 873.71 ± 2 | –
CCCC[N+]1(C)CCCC1.N#CN=C=[N-] [1-butyl-1-methylpyrrolidinium dicyanamide] + CCCCCCCC | – | mass density ([2]; x2 = 0.01): 1012.4 ± 6.1 kg/m3

The next lines start with results.

mass density [1] [kg/m3] | Structure (SMILES) | other results
1014.47 ± 6 | CCCC[N+]1(C)CCCC1.N#CN=C=[N-] [1-butyl-1-methylpyrrolidinium dicyanamide] | –
726.15 ± 2 | CCCCCCCCCC [decane] | –
698.86 ± 2 | CCCCCCCC [octane] | –
